The source of these data is ChEMBL document CHEMBL5537109, “Natural products as potential lead compounds to develop new antiviral drugs over the past decade” (Eur J Med Chem, 2023).

A word on the IC50: it is the concentration needed to halve the response being measured. Low readings indicate inhibition by little substance, high ones a need for much substance.

The assay has as its target Neuraminidase (Influenza A virus (A/Puerto Rico/8/1934(H1N1)), UniProt P03468, H274Y). The experiment in a line: Inhibition of influenza A virus H1N1 neuraminidase H274Y mutant.

Regarding `C[C@@H]1C[C@H](C)C(=O)[C@@H]2O[C@@H]2[C@@H]2[C@@H](O)[C@@H]3OC4=C(C(=O)O[C@@]42C[C@H]3C)C1=O`, the IC50 was above 44.2 µM.
